Assay results: US11583517B2, “Dual antagonist of PGD2/DPr2 and Thromboxane A2/TPr receptors and use for treatment of maladaptive immune response or thrombotic diathesis” (priority 2020, dated 2023)
“Also recorded” adds a separate entry of the source.

Experiments:
[1] = system: primary pulmonary hypertension; test: patient with primary pulmonary hypertension; format: in vivo, human; settings: person
Description: Patient is diagnosed to have primary pulmonary hypertension.

TAO [2] = test: male smokers with TAO, ramatroban versus aspirin; format: in vivo, human; settings: 12 months
Description: All patients can be prescribed standard therapies including pentoxifylline, iloprost, calcium antagonists, statins and low molecular weight heparin or oral anticoagulants. […] There is increase in blood flow in the dorsalis pedis and posterior tibial pulses arteries by doppler examination with a decrease in need for surgical procedures and amputations. Improvement was seen of active vascular lesions and pain symptoms.

silicosis mice = settings: silica-induced mouse model; cited from earlier work
Alzheimer's disease [3] = test: AD patients randomized to four treatment groups; format: in vivo, human; settings: long-term follow-up, compared with placebo
Kawasaki like disease = settings: in vivo
sickle cell disease = test: SCD patient given COVID-19 vaccine with ramatroban; format: in vivo, human
Protocol: A patient with sickle cell disease (SCD) has a past history of multiple vaso-occlusive crisis (VOC), acute chest syndrome (ACS) and ischemic cerebrovascular accidents. Patient is administered the AstraZeneca vaccine as prophylaxis against COVID-19. […] The same regimen is repeated at the time of the second dose of the vaccine. […] Other similar patients with SCD are found to experience high incidence of thrombotic events after COVID-19 vaccines.

[4] = system: asthma and allergic rhinitis; settings: added to conventional therapeutic regimen
acute viral pneumonia = format: in vivo, human
viral infection = test: outbreak of viral infection in animal shelter facility; format: in vivo, dogs and cats; settings: older animals
Description: In a large animal shelter facility, there was an outbreak of viral infection largely affecting dogs and cats leading to deaths of many older animals, while the young animals survived.

TAO [5] = test: TAO patient and randomized control trial versus standard of care; format: in vivo, human
pneumoconiosis = test: non-smoking stone crushers, chemoprophylaxis versus placebo; settings: 5 years
Parkinson's disease = test: patients with Parkinson's disease; format: in vivo, human
[6] = system: dye nephrotoxicity and acute kidney injury; test: ramatroban versus placebo prior to cardiac catheterization; format: in vivo, human; settings: chronic kidney disease or heart failure, compared to placebo
Description: Patients with chronic kidney disease or heart failure are randomized to receive ramatroban versus placebo prior to cardiac catheterization.

Alzheimer's disease [7] = settings: in vivo; cited from earlier work
[8] = retrospective analysis of COVID-19 patients
[9] = retrospective analysis, ramatroban continued after discharge
[10] = Patient 6b, two months after start

With `CCCc1nn(C)c2c(=O)[nH]c(-c3cc(S(=O)(=O)N4CCN(C)CC4)ccc3OCC)nc12` [sildenafil] the clinical response [1] was “no response”.
With `O=C(O)CCn1c2c(c3ccccc31)C[C@H](NS(=O)(=O)c1ccc(F)cc1)CC2` [Ramatroban, 3-[(3R)-3-[(4-fluorophenyl)sulfonylamino]-1,2,3,4-tetrahydrocarbazol-9-yl]propanoic acid] the “active vascular lesions and pain symptoms” value (TAO [2]) was “Improvement”, the “blood flow in the dorsalis pedis and posterior tibial arteries by doppler” value (TAO [2]) was “increase” and the “development of ulcers in the fingertips and toes, acrocyanosis, necrosis and loss of substance” value (TAO [2]) was “significantly less”. For the same compound, the “need for surgical procedures and amputations” value (TAO [2]) was “decrease”, the “NLRP3 inflammasome, IL-1beta and caspase-1” value (silicosis mice) was “inhibiting” and the “fibrosis and resulting cardiopulmonary dysfunction” value (silicosis mice) was “inhibiting; also recorded: significantly reducing”. For the same compound, the “infiltration with macrophages, lymphocytes and neutrophils” value (silicosis mice) was “reducing; also recorded: markedly inhibited”, the lung compliance (silicosis mice) was “restoring” and the silica-induced pulmonary inflammation (silicosis mice) was “alleviated”. The cognition and memory (Alzheimer's disease [3]) was “improvement”, the “pulmonary function tests and DLCO” value (COVID-19; after 2 months) was “normal” and the “chest X-ray” value (COVID-19; after 2 months, ramatroban continued as outpatient) was “complete resolution of the infiltrates with no evidence of any pulmonary fibrosis or scarring”. The “time to discharge home” value (COVID-19; person, 75 mg twice a day) was 5 days, the lymphocyte counts (COVID-19; [8]) was “rapid improvement” and the “need for mechanical ventilation” value (COVID-19; [8]) was “less”. For the same compound, the recovery time (COVID-19; [8]) was “shorter”, the thrombocytopenia (COVID-19; [8]) was “rapid recovery” and the “fibrosis and scarring in the lungs” value (COVID-19; [9]) was “reduced”. The lung function (COVID-19; [9]) was “better”, the laboratory parameters (Kawasaki like disease) was “marked improved” and the “prophylaxis against Kawasaki like disease” value (Kawasaki like disease) was “remains healthy”. The “antibody response to vaccine” value (sickle cell disease; AstraZeneca vaccine, ramatroban 75 mg twice a day orally for one month) was “robust”, the “VOC, ACS, myocardial infarction or stroke” value (sickle cell disease; after vaccine, ramatroban 75 mg twice a day orally) was “no recrudescence or recurrence” and the improvement in symptoms [4] was 25%. The lung compliance (acute viral pneumonia; long term follow up) was “higher”, the lung fibrosis (acute viral pneumonia; long term follow up) was “significantly reduced” and the “resolution of pneumonia during the hospitalization” value (acute viral pneumonia; versus placebo, with conventional therapy) was “significantly more rapid”. For the same compound, the infection severity (viral infection) was “marked decline”, the mortality (viral infection) was “marked decrease” and the “blood flow to the lower extremities” value (TAO [5]; a) person) was “improvement”. For the same compound, the gangrenous toes (TAO [5]; a), chronic smoker) was “partial resolution and healing”, the ischemic lesions (TAO [5]; b) randomized control trial, versus control group) was “resolution” and the blood flow (TAO [5]; b) randomized control trial, with standard of care versus standard of care) was “improvement”. For the same compound, the lung compliance (pneumoconiosis) was “higher”, the lung fibrosis (pneumoconiosis) was “significantly reduced” and the falls (Parkinson's disease; Patient 6a) was “stops falling”. For the same compound, the hallucinations (Parkinson's disease; Patient 6a) was “no longer experiences hallucinations”, the cognitive function (Parkinson's disease; Patient 6a, at 4 months) was “significant improvement” and the sense of balance (Parkinson's disease; Patient 6a, first week of treatment) was “subjective improvement”. The “cognitive ability and sociability” value (Parkinson's disease; [10]) was “marked improvements”, the hallucinations (Parkinson's disease; [10]) was “reduction” and the physical functioning (Parkinson's disease; [10]) was “significant improvement”. For the same compound, the “dye nephrotoxicity and acute kidney injury” value [6] was “significantly less”.
For “sodium oligomannate [sodium oligomannate (GV-971)]”, the cognition and memory (Alzheimer's disease [3]) is given as “improvement” and the “cognitive impairment in Alzheimer's disease” value (Alzheimer's disease [7]) is given as “improves”.
In the case of `COc1ccccc1Oc1c(NS(=O)(=O)c2ccc(C(C)(C)C)cc2)nc(-c2ncccn2)nc1OCCO` [bosentan], the clinical response [1] is reported as “no response”.
